According to article PMC6273807, “Identification of Selective ERRγ Inverse Agonists” (Molecules, 2016):

How the values were obtained:
ERRγ [1] = target: T1, ERRγ (Homo sapiens, UniProt P62508); assay: TR-FRET (LanthaScreen) ERRγ binding assay; settings: Table 1 screening; 2-fold serial dilution from 10 μM; read-out: ERRγ, IC50 (binding inhibition of ERRγ binding activity)
T1 construct: purchased Life Technologies
T1 sequence (P62508 233-457 limits assumed): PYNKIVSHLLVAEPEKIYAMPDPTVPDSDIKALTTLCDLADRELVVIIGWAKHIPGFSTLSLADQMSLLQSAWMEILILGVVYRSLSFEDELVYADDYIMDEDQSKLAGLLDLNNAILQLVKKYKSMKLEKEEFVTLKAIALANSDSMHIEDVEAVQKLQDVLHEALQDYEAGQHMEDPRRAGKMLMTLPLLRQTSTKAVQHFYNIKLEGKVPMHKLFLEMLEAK
Experimental: Initials creening was conducted using a well established TR-FRET based ERRγ binding assay as described in the Experimental section at a concentration of 10 μM. Serial dilutions of the synthesized compounds were used to calculate IC50 values for the binding affinity with ERRγ.
(§1) ERRγ binding assay was conducted with Lantascreen assay system (Life Technologies, Grand Island, NY, USA), which was based on TR-FRET, followed by manufacturer’s instruction. Briefly, compounds were serially diluted with 2-fold staring from 10 μM and 10 μL of each diluent was added in 384 well plate. Then, GST-conjugated ERRγ LBD (ligand-binding domain) was added to be 5 nM. Next, the mixture of fluorescien-conjugated coactivator PGC1a (final concentration to be 500 nM) and Tb-a-GST antibody (final concentration to be 5 nM) was added. The reaction mixture was incubated at rt in dark state for 1 h.

ERRα = target: T2, ERRα (Homo sapiens, UniProt P11474); assay: TR-FRET (LanthaScreen) ERRα binding assay; settings: maximum concentration tested 10 μM
T2 construct: purchased Life Technologies
T2 sequence (P11474 193-421 limits assumed): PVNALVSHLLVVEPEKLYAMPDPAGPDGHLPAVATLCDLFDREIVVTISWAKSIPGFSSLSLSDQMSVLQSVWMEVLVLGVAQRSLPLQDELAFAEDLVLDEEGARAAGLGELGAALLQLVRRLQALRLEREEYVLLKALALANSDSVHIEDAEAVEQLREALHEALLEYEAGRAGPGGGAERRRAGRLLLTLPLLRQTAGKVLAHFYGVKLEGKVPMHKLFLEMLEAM
Experimental: as §1
(§2) ERRs and ERα binding assay used same assay system as ERRγ’s, Lanthascreen assay system. Therefore, procedure was same as ERRγ binding assay except tested enzymes (ERRα, ERRβ, ERα). Used reference compounds were 4-OHT 1 for ERα and ERRβ binding assay, and XCT790 for ERRα binding assay.

ERRβ = target: T3, ERRβ (Homo sapiens, UniProt O95718); assay: TR-FRET (LanthaScreen) ERRβ binding assay; settings: maximum concentration tested 10 μM
T3 construct: purchased Life Technologies
T3 sequence (O95718 208-432 limits assumed): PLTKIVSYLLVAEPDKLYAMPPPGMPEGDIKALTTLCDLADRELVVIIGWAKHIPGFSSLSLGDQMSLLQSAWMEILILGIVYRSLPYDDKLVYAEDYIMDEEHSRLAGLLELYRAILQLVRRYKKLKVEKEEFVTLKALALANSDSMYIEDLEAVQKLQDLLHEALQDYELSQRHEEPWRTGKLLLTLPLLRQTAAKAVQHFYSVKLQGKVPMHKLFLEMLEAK
Experimental: as §1, §2

ERα = target: T4, ERα (Homo sapiens, UniProt P03372); assay: TR-FRET (LanthaScreen) ERα binding assay; settings: maximum concentration tested 10 μM
T4 construct: purchased Life Technologies
T4 sequence (P03372 311-547 limits assumed): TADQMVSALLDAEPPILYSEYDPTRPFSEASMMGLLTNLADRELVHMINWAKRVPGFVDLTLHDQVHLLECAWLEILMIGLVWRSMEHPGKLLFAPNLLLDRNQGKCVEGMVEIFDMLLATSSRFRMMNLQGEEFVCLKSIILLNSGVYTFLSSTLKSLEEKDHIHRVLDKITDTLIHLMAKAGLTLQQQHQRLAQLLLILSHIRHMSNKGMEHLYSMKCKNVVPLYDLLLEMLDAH
Experimental: as §1, §2

ERRγ [2] = target: T5, ERRγ (Homo sapiens, UniProt P62508); assay: ERRγ functional assay: GAL4-ERRγ luciferase reporter gene in AD293 cells; assay type: cell-based
T5 sequence (P62508 233-458 limits assumed): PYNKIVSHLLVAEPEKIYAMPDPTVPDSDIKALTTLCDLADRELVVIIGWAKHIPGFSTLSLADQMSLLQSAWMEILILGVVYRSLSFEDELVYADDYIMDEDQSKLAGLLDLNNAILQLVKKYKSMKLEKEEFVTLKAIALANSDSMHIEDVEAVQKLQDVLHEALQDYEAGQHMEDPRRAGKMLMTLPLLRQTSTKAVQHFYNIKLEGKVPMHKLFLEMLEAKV
Experimental: Along with the binding assay campaign, functional activity was determined in order to validate the utility of the binding affinity in a cellular context as described in the Experimental.
Figure 2 Cell based reporter-gene assay screening of 16 analogs ERRγ binding activity in cell was measured by luciferase activity using co-transfection system with GAL4-ERRγ and pFR-luciferase reporter gene.
AD293 cells were cultured in Dulbecco’ modified Eagle medium (DMEM) High glucose supplemented with 0.5% FBS (Hyclone, Logan, UT, USA). After 24 h, culture media was changed with DMEM High glucose containing 10% FBS. DNA constructs, which includes pCMX-Gal4-ERRγ, pFR-luciferase reporter plasmid, pCMV-β-gal were transiently transfected into AD293 cells using TransIT-LT1 transfection reagent (Mirus, Madison, WI, USA) for 24 h. Then, transfected cells were treated with compounds for 24 h and harvested for detection of luciferase activity and β-gal activity. All cells were incubated at 37 °C under 5% CO2 in a humidified incubator [5].

CYP1A2 = target: T6, CYP1A2 (Homo sapiens, UniProt P05177); assay: CYP inhibition assay, cocktail, human liver microsomes (phenacetin O-deethylase); assay type: in vitro ADME; settings: 10 μM, activity in presence of inhibitor as % of control
T6 sequence (P05177 1-516): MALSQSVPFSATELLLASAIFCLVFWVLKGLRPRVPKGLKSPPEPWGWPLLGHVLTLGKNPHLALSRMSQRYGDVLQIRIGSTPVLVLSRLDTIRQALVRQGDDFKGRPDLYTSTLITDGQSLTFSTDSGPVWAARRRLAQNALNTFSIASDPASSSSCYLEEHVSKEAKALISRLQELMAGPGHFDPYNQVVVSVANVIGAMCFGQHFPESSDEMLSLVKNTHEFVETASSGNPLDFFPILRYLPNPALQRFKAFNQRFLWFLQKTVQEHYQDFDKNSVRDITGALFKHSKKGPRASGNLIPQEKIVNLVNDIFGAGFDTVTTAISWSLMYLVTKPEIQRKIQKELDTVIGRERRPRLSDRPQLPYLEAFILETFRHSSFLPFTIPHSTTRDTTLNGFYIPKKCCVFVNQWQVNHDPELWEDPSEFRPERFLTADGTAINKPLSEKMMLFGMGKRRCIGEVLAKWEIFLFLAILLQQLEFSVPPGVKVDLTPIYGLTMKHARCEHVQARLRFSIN

CYP2C9 = CYP2C9 (Homo sapiens, UniProt P11712); assay: CYP inhibition assay, cocktail, human liver microsomes (tolbutamide 4-hydroxylase); assay type: in vitro ADME
Sequence of CYP2C9 (P11712 whole entry): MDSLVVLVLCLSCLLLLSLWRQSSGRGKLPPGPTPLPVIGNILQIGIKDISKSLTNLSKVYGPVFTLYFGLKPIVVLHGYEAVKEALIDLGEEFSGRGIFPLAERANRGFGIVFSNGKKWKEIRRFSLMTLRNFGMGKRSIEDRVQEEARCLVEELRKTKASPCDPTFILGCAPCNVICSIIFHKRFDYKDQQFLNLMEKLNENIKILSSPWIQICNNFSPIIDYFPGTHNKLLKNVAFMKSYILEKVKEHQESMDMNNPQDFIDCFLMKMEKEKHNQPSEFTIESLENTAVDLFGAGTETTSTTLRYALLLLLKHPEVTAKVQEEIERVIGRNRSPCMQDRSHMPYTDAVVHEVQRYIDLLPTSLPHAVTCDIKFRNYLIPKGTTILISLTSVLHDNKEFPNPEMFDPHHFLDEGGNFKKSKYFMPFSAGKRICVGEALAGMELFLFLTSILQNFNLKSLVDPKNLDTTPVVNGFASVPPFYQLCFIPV

CYP2C19 = CYP2C19 (Homo sapiens, UniProt P33261); assay: CYP inhibition assay, cocktail, human liver microsomes (S-mephenytoin 4-hydroxylase); assay type: in vitro ADME; settings: 10 μM, activity in presence of inhibitor as % of control
Sequence of CYP2C19 (P33261 whole entry): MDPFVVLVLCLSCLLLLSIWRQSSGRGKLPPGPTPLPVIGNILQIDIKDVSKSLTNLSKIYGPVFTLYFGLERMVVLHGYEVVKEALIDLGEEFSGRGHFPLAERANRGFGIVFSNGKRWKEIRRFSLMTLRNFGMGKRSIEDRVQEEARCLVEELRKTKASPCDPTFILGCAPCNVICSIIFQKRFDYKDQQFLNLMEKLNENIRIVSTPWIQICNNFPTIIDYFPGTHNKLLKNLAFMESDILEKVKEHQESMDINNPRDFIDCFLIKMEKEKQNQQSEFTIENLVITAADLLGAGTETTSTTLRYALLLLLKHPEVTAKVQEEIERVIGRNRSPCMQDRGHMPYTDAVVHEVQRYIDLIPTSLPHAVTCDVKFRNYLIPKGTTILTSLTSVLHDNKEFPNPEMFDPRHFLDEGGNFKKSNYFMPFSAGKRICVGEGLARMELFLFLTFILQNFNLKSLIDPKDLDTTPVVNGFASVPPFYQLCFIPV

CYP2D6 = CYP2D6 (Homo sapiens, UniProt P10635); assay: CYP inhibition assay, cocktail, human liver microsomes (dextromethorphan O-demethylase); assay type: in vitro ADME; settings: 10 μM, activity in presence of inhibitor as % of control
Sequence of CYP2D6 (P10635 whole entry): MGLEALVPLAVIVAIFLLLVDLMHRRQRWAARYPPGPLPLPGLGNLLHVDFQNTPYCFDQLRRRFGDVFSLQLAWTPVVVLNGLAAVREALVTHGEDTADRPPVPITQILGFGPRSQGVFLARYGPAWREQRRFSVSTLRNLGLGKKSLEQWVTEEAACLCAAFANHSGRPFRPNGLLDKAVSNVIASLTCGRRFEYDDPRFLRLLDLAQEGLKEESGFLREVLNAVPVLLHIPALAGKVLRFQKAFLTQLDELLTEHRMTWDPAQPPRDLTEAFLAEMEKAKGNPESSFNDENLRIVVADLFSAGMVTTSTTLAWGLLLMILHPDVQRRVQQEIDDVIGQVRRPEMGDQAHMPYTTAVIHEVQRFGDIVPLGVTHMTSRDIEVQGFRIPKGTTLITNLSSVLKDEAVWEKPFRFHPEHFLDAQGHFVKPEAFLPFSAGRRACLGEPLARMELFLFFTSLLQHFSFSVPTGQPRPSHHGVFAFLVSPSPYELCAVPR

CYP3A = assay: CYP inhibition assay, cocktail, human liver microsomes (midazolam 1'-hydroxylase); assay type: in vitro ADME; settings: 10 μM, activity in presence of inhibitor as % of control
hERG channel = hERG channel (Homo sapiens, UniProt Q12809); assay: hERG channel binding assay (predictor hERG fluorescence polarization)
Sequence of hERG channel (Q12809 whole entry): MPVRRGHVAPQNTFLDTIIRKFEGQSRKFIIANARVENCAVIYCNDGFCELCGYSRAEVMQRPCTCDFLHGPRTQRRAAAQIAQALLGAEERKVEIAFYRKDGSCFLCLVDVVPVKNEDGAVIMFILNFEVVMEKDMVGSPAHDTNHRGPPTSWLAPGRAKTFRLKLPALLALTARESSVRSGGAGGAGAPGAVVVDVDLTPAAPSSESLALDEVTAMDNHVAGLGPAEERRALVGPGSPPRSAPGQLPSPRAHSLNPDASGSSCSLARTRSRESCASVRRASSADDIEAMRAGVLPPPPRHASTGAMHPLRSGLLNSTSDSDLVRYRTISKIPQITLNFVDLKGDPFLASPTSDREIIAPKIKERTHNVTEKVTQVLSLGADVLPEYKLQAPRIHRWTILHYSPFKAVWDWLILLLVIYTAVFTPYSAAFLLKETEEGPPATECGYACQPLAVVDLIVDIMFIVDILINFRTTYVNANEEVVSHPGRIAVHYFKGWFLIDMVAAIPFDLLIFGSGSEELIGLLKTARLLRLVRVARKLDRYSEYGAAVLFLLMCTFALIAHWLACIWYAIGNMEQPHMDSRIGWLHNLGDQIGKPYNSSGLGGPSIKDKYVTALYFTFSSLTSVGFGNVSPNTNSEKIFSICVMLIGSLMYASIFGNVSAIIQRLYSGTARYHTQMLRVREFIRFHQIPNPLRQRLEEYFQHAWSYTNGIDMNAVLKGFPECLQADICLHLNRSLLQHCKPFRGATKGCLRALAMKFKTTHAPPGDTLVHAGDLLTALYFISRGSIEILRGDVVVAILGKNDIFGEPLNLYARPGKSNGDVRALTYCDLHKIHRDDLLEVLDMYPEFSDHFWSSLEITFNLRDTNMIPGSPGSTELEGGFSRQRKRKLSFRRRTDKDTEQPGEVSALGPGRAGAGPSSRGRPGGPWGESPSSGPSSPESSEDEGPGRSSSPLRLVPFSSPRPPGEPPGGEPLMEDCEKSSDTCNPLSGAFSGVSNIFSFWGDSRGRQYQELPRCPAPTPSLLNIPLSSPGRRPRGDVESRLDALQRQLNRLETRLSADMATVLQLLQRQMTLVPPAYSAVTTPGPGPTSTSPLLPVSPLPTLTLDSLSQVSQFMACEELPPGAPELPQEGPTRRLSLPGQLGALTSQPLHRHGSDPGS
Experimental: hERG channel binding assay was performed using predictor hERG fluorescence polarization assay (Cat.No. PV5365, Invitrogen, Grand Island, NY, USA) according to the manufacturer’s instructions. […] Fluorescence intensity (Excitation at 530 nm, Emission at 590 nm) was measured using a multi-mode microplate reader Synergy Neo (Biotek, Winooski, VT, USA).

`CN(C)CCOc1ccc(/C(=C(/CCCO)c2ccc3cnn(C)c3c2)c2ccc(O)cc2)cc1` [Compound 15g, (Z)-4-(1-(4-(2-(Dimethylamino)ethoxy)phenyl)-5-hydroxy-2-(1-methyl-1H-indazol-6-yl)pent-1-en-1-yl)phenol] was tested, and the IC50 (ERRγ [1]) was 0.44 µM, the “Binding Assay, IC50, ERRα” value (ERRα) was “no observable affinity” and the IC50 (ERRα) was > 10 µM. The “Binding Assay, IC50, ERRβ” value (ERRβ) was “no observable affinity”, the IC50 (ERRβ) was > 10 µM and the IC50 (ERα) was > 10 µM. For the same compound, the “ERRγ Functional Assay at 10 μM (% of Control)” value (ERRγ [2]; 10 μM, AD293 cells, 24 h treatment, luciferase activity) was 5.4 % of Control, the “ERRγ functional activity in the cellular system (in words)” value (ERRγ [2]; 10 μM, reporter-gene assay, compared with control ligand 4) was “comparable regression of the ERRγ transcriptional activity” and the inhibition at 10 µM (ERRγ [2]; AD293, 24 h, screening concentration of 10 μM, read-out: transcriptional repression) was 95%. For the same compound, the “CYP Inhibition (% of Control), 1A2” value (CYP1A2) was >100 % of Control, the “CYP Inhibition (% of Control), 2C9” value (CYP2C9; 10 μM, human liver microsomes, activity in presence of inhibitor as % of control) was 83 % of Control and the “inhibition of the CYP 2C9 subtype” value (CYP2C9; at a concentration of 10 μM) was 17%. The “CYP Inhibition (% of Control), 2C19” value (CYP2C19) was 95 % of Control, the “CYP Inhibition (% of Control), 2D6” value (CYP2D6) was 99 % of Control and the “CYP Inhibition (% of Control), 3A4” value (CYP3A) was 88 % of Control. For the same compound, the IC50 (hERG channel) was > 30 µM.
